Assay results: patent US8603545B2, “Cosmetic and pharmaceutical uses of an extract of a plant belonging to the genus Buchholzia” (BASF Beauty Care Solutions France S.A.S., priority 2004, dated 2013)

Columns and labels:
Type in all cases: cell-based
human keratinocytes = assay: Inhibition of UVB effect on human keratinocytes
Description: Aim of the experiment: Determination of the potential of the tested ingredient to reduce negative effects of UV-B radiation on the survival rate of human keratinocytes. It is well known that UV-B radiation induces a cutaneous inflammation by stimulation of enzymes such as phospholipase A2 (PLA2). This enzyme catalyses the release of arachidonic acid which is a precursor of mediators of inflammation like the prostaglandin PGE2. Moreover this membrane stress results in the release of a cytoplasmic enzyme: lactate dehydrogenase (LDH). • Seeding of human keratinocytes in a growth medium • Incubation for 3 days at 37° C., CO2=5% (atmosphere: 5% carbon dioxide in air) • Exchange of the growth medium by balanced salt solution with a range of concentration of ingredients to be tested • Irradiation of keratinocytes by UV-B: 30 mJ/cm^2 • Incubation for 1 day at 37° C., CO2=5% • Recording of cell number by DNA measurement with a fluorescent probe • Recording of the level of released LDH (by an enzymatic reaction) and released PGE2 (by ELISA method) Results in % against control (average of 2 assays in triplicate): […]

B16 melanocytes = assay: Inhibition of melanin synthesis, efficacy test on B16 melanocytes
Method: Aim of the experiment: to evaluate the potential of compounds to lower the melanin synthesis; the compounds have been tested on a cell culture of melanocytes called B16. • Seeding of melanocytes in growth medium • Incubation for 3 days at 37° C., CO2=5% (atmosphere: 5% carbon dioxide in air) • Exchange of the growth medium by a medium with a range of concentration of ingredients to be tested • Incubation for 3 days at 37° C., CO2=5% (atmosphere: 5% carbon dioxide in air) • Recording of Cellular levels of protein by Bradford's method • Recording of melanin by a spectrophotometric method (OD at 475 nm) Results in % against control (average of 2 assays in triplicate): […]

human fibroblasts = assay: Inhibition of UVA effect on human fibroblasts
Method: Aim of the experiment: Determination of the potential of the tested ingredient to reduce negative effects of UV-A radiation on the survival rate of human fibroblasts.
• Seeding of human fibroblasts in a growth medium • Incubation for 3 days at 37° C., CO2=5% (atmosphere: 5% carbon dioxide in air) • Exchange of the growth medium by a medium with a range of concentration of ingredients to be tested • Incubation for 2 days at 37° C., CO2=5% • Exchange of the medium with ingredients by a balanced salt solution and UV-A irradiation (20 J/cm^2) • Recording of released MDA levels by spectro-fluorimetry. (MDA (malonaldialdehyde) is a product of oxidative degradation of lipids from cell membranes) • Recording of intracellular proteins by Bradford's method
Results in % against control (average of 2 assays in triplicate): […]

[1] = UV-B 30 mJ/cm2, dose 0.03 % w/v
[2] = UV-A 20 J/cm2, dose 0.0003 % w/v

With `CC(=O)Oc1ccccc1C(=O)O` [Aspirin ®, Aspirin] the “level of cell number from UV-B irradiated keratinocytes (in words)” value (human keratinocytes) was “strongly increased”, the “level of released LDH from UV-B irradiated keratinocytes (in words)” value (human keratinocytes) was “strongly decreased” and the “level of released PGE2 from UV-B irradiated keratinocytes (in words)” value (human keratinocytes) was “strongly decreased”. The Cell number (human keratinocytes; [1]) was 59 % against control, the “Level of released LDH” value (human keratinocytes; [1]) was 8 % against control and the “Level of released PGE2” value (human keratinocytes; [1]) was 0 % against control.

In the case of `O=c1cc(CO)occ1O` [kojic acid], the “rate of released melanin from treated B16 melanocytes (in words)” value (B16 melanocytes) is reported as “strongly decreased”, the “Rate of cellular proteins” value (B16 melanocytes; dose 0.03 % w/v) is reported as 117 % against control and the Rate of melanin (B16 melanocytes; dose 0.03 % w/v) is reported as 34 % against control.

Vitamin E was tested, and the “rate of released MDA from UV-A irradiated fibroblasts (in words)” value (human fibroblasts) was “strongly decreased”, the Intracellular proteins (human fibroblasts; [2]) was 103 % against control and the “Rate of released MDA” value (human fibroblasts; [2]) was 25 % against control.
